Test results reported in patent US8952024B2, “Herbicidal pyrimidone derivatives” (E I du Pont de Nemours and Company, priority 2009, dated 2015).

Columns and labels:
Assay type in all cases: in vivo
[1] = tested on: Italian ryegrass (Lolium multiflorum); experiment: Test B pre-/postemergence plant response
Excerpt: (§1) Seeds of plant species selected from blackgrass (Alopecurus myosuroides), downy bromegrass (Bromus tectorum), green foxtail (Setaria viridis), Italian ryegrass (Lolium multiflorum), wheat (Triticum aestivum), wild oat (Avena fatua), deadnettle (henbit deadnettle, Lamium amplexicaule), galium (catchweed bedstraw, Galium aparine), bermudagrass (Cynodon dactylon), Surinam grass (Brachiaria decumbens), cocklebur (Xanthium strumarium), corn (Zea mays), large crabgrass (Digitaria sanguinalis), woolly cupgrass (Eriochloa villosa), giant foxtail (Setaria faberii), goosegrass (Eleusine indica), johnsongrass (Sorghum halepense), kochia (Kochia scoparia), lambsquarters (Chenopodium album), morningglory (Ipomoea coccinea), nightshade (eastern black nightshade, Solanum ptycanthum), yellow nutsedge (Cyperus esculentus), pigweed (Amaranthus retroflexus), ragweed (common ragweed, Ambrosia elatior), Russian thistle (Salsola kali), soybean (Glycine max), sunflower (common oilseed sunflower, Helianthus annuus) and velvetleaf (Abutilon theophrasti) were planted into a blend of loam soil and sand and treated preemergence with test compounds formulated in a non-phytotoxic solvent mixture which included a surfactant.
(§2) At the same time, plants selected from these crop and weed species and also winter barley (Hordeum vulgare), canarygrass (Phalaris minor), chickweed (Stellaria media) and windgrass (Apera spica-venti) were planted in pots containing Redi-Earth® planting medium (Scotts Company, 14111 Scottslawn Road, Marysville, Ohio 43041) comprising spaghnum peat moss, vermiculite, wetting agent and starter nutrients and treated with postemergence applications of some of the test chemicals formulated in the same manner. Plants ranged in height from 2 to 18 cm (1- to 4-leaf stage) for postemergence treatments.
(§3) Treated plants and controls were maintained in a greenhouse for 13 to 15 days, after which time all treated plants were visually evaluated and compared to controls. Plant response ratings, summarized in Table B, are based on a scale of 0 to 100 where 0 is no effect and 100 is complete control. A dash (-) response means no test result.

[2] = tested on: Surinam grass (Brachiaria decumbens); experiment: Test B pre-/postemergence plant response
Excerpt: as §1, §2, §3

[3] = tested on: bermudagrass (Cynodon dactylon); experiment: Test B pre-/postemergence plant response
Excerpt: as §1, §2, §3

[4] = tested on: blackgrass (Alopecurus myosuroides); experiment: Test B pre-/postemergence plant response
Excerpt: as §1, §2, §3

corn (Zea mays) = experiment: Test B pre-/postemergence plant response
Excerpt: as §1, §2, §3

[5] = tested on: johnsongrass (Sorghum halepense); experiment: Test B pre-/postemergence plant response
Excerpt: as §1, §2, §3

[6] = tested on: lambsquarters (Chenopodium album); experiment: Test B pre-/postemergence plant response
Excerpt: as §1, §2, §3

[7] = tested on: large crabgrass (Digitaria sanguinalis); experiment: Test B pre-/postemergence plant response
Excerpt: as §1, §2, §3

[8] = tested on: ragweed (common ragweed, Ambrosia elatior); experiment: Test B pre-/postemergence plant response
Excerpt: as §1, §2, §3

soybean (Glycine max) = experiment: Test B pre-/postemergence plant response
Excerpt: as §1, §2, §3

[9] = tested on: velvetleaf (Abutilon theophrasti); experiment: Test B pre-/postemergence plant response
Excerpt: as §1, §2, §3

wild oat (Avena fatua) = experiment: Test B pre-/postemergence plant response
Excerpt: as §1, §2, §3

[10] = tested on: woolly cupgrass (Eriochloa villosa); experiment: Test B pre-/postemergence plant response
Excerpt: as §1, §2, §3

[11] = tested on: yellow nutsedge (Cyperus esculentus); experiment: Test B pre-/postemergence plant response
Excerpt: as §1, §2, §3

[12] = tested on: canarygrass (Phalaris minor); experiment: Test B postemergence plant response; details: Postemergence
Summary of the method: (§4)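 Plants at the 1- to 4-leaf stage (2 to 18 cm tall), grown in pots of peat moss/vermiculite medium with wetting agent and starter nutrients, received postemergence applications of test chemicals. After 13 to 15 days in a greenhouse, injury was rated visually against untreated controls on a 0 (no effect) to 100 (complete control) scale.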

[13] = tested on: chickweed (Stellaria media); experiment: Test B postemergence plant response; details: Postemergence
Summary of the method: as §4

[14] = tested on: windgrass (Apera spica-venti); experiment: Test B postemergence plant response; details: Postemergence
Summary of the method: as §4

[15] = tested on: winter barley (Hordeum vulgare); experiment: Test B postemergence plant response; details: Postemergence
Summary of the method: as §4

[16] = 250 g ai/ha, Preemergence, 0 to 100 scale
[17] = Postemergence, 31 g ai/ha, scale 0 to 100 (0 no effect, 100 complete control)
[18] = Postemergence, 62 g ai/ha, scale 0 (no effect) to 100 (complete control), 13 to 15 days
[19] = Postemergence, 125 g ai/ha, visual rating after 13 to 15 days, scale 0 (no effect) to 100 (complete control)
[20] = Postemergence, 250 g ai/ha, scale 0 to 100
[21] = Preemergence, 31 g ai/ha, scale 0 to 100 (0 no effect, 100 complete control)
[22] = Preemergence, 62 g ai/ha, scale 0 to 100, 0 no effect, 100 complete control
[23] = Preemergence, 125 g ai/ha, 0 to 100 scale
[24] = 31 g ai/ha, scale 0 to 100 (0 no effect, 100 complete control)
[25] = 62 g ai/ha, scale 0 (no effect) to 100 (complete control), 13 to 15 days
[26] = 125 g ai/ha, visual rating after 13 to 15 days, scale 0 (no effect) to 100 (complete control)

O=C1CCCC([O-])=C1C(=O)c1cnc(-c2ccccc2)n(-c2ccccc2)c1=O.[K+] [Compound 14]
95: Plant response rating, Johnsongrass [5, 16]
40: Plant response rating, Surinam Grass [2, 17] | Plant response rating, Corn (corn (Zea mays); [18]) | Plant response rating, Oat, Wild (wild oat (Avena fatua); [18]) | Nutsedge, Yellow plant response rating [11, 23] | Barley plant response rating ([15]; 250 g ai/ha, scale 0 to 100)
5: Plant response rating, Ryegrass, Italian [1, 18] | Plant response rating, Ryegrass, Italian [1, 19] | Plant response rating, Surinam Grass [2, 22] | Plant response rating, Blackgrass [4, 19] | Blackgrass plant response rating [4, 20] | Plant response rating, Johnsongrass [5, 21] | Plant response rating, Crabgrass, Large [7, 21] | Plant response rating, Cupgrass, Woolly [10, 22] | Plant response rating, Windgrass [14, 24] | Plant response rating, Barley ([15]; 125 g ai/ha, scale 0 to 100 (0 no effect, 100 complete control), 13 to 15 days)
0: Plant response rating, Ryegrass, Italian [1, 16] | Plant response rating, Ryegrass, Italian [1, 17] | Plant response rating, Ryegrass, Italian [1, 21] | Plant response rating, Ryegrass, Italian [1, 22] | Ryegrass, Italian plant response rating [1, 23] | Plant response rating, Surinam Grass [2, 21] | Plant response rating, Blackgrass [4, 16] | Plant response rating, Blackgrass [4, 17] | Plant response rating, Blackgrass [4, 18] | Plant response rating, Blackgrass [4, 21] | Plant response rating, Blackgrass [4, 22] | Blackgrass plant response rating [4, 23] | Plant response rating, Corn (corn (Zea mays); [21]) | Plant response rating, Corn (corn (Zea mays); [22]) | Corn plant response rating (corn (Zea mays); [23]) | Plant response rating, Oat, Wild (wild oat (Avena fatua); [16]) | Plant response rating, Oat, Wild (wild oat (Avena fatua); [21]) | Plant response rating, Oat, Wild (wild oat (Avena fatua); [22]) | Oat, Wild plant response rating (wild oat (Avena fatua); [23]) | Plant response rating, Cupgrass, Woolly [10, 21] | Plant response rating, Nutsedge, Yellow [11, 21] | Plant response rating, Barley [15, 24] | Plant response rating, Barley [15, 25]
75: Plant response rating, Bermudagrass [3, 22]
60: Surinam Grass plant response rating [2, 23]
45: Plant response rating, Corn (corn (Zea mays); [19]) | Plant response rating, Johnsongrass [5, 17]
20: Plant response rating, Nutsedge, Yellow [11, 17] | Plant response rating, Canarygrass [12, 25] | Plant response rating, Canarygrass [12, 26]
100: Plant response rating, Bermudagrass [3, 16] | Bermudagrass plant response rating [3, 23] | Plant response rating, Lambsquarters [6, 16] | Plant response rating, Lambsquarters [6, 21] | Plant response rating, Lambsquarters [6, 22] | Lambsquarters plant response rating [6, 23] | Plant response rating, Crabgrass, Large [7, 16] | Crabgrass, Large plant response rating [7, 23] | Plant response rating, Velvetleaf [9, 16] | Velvetleaf plant response rating [9, 20] | Velvetleaf plant response rating [9, 23]
98: Ragweed plant response rating [8, 20] | Plant response rating, Velvetleaf [9, 22]
70: Plant response rating, Bermudagrass [3, 17] | Plant response rating, Bermudagrass [3, 18] | Plant response rating, Bermudagrass [3, 21] | Corn plant response rating (corn (Zea mays); [20]) | Plant response rating, Ragweed [8, 21] | Plant response rating, Velvetleaf [9, 21] | Plant response rating, Cupgrass, Woolly [10, 16]
85: Plant response rating, Lambsquarters [6, 17] | Plant response rating, Lambsquarters [6, 18] | Plant response rating, Lambsquarters [6, 19] | Lambsquarters plant response rating [6, 20] | Plant response rating, Crabgrass, Large [7, 19] | Crabgrass, Large plant response rating [7, 20] | Plant response rating, Ragweed [8, 19] | Plant response rating, Soybean (soybean (Glycine max); [16]) | Plant response rating, Soybean (soybean (Glycine max); [18]) | Plant response rating, Velvetleaf [9, 17] | Plant response rating, Nutsedge, Yellow [11, 16]
55: Surinam Grass plant response rating [2, 20] | Plant response rating, Crabgrass, Large [7, 18]
10: Plant response rating, Corn (corn (Zea mays); [16]) | Plant response rating, Corn (corn (Zea mays); [17]) | Plant response rating, Canarygrass [12, 24]
80: Plant response rating, Surinam Grass [2, 16] | Plant response rating, Bermudagrass ([3]; Postemergence, 125 g ai/ha, scale 0 to 100 (0 no effect, 100 complete control), 13 to 15 days) | Bermudagrass plant response rating [3, 20] | Plant response rating, Johnsongrass [5, 18] | Plant response rating, Johnsongrass [5, 19] | Johnsongrass plant response rating [5, 20] | Johnsongrass plant response rating [5, 23] | Plant response rating, Ragweed [8, 17] | Plant response rating, Ragweed [8, 18] | Plant response rating, Soybean (soybean (Glycine max); [17]) | Plant response rating, Cupgrass, Woolly [10, 18] | Plant response rating, Cupgrass, Woolly [10, 19] | Cupgrass, Woolly plant response rating [10, 20] | Plant response rating, Chickweed [13, 26] | Chickweed plant response rating ([13]; 250 g ai/ha, scale 0 to 100)
50: Ryegrass, Italian plant response rating [1, 20] | Plant response rating, Surinam Grass [2, 18] | Plant response rating, Surinam Grass [2, 19] | Plant response rating, Crabgrass, Large [7, 17] | Plant response rating, Crabgrass, Large [7, 22] | Soybean plant response rating (soybean (Glycine max); [23]) | Plant response rating, Oat, Wild (wild oat (Avena fatua); [19]) | Oat, Wild plant response rating (wild oat (Avena fatua); [20]) | Plant response rating, Cupgrass, Woolly [10, 17] | Cupgrass, Woolly plant response rating [10, 23] | Nutsedge, Yellow plant response rating [11, 20] | Canarygrass plant response rating ([12]; 250 g ai/ha, scale 0 to 100) | Windgrass plant response rating ([14]; 250 g ai/ha, scale 0 to 100)
30: Plant response rating, Johnsongrass [5, 22] | Plant response rating, Oat, Wild (wild oat (Avena fatua); [17]) | Plant response rating, Nutsedge, Yellow [11, 18] | Plant response rating, Nutsedge, Yellow [11, 19] | Plant response rating, Nutsedge, Yellow [11, 22] | Plant response rating, Windgrass [14, 25] | Plant response rating, Windgrass [14, 26]
90: Plant response rating, Ragweed [8, 16] | Plant response rating, Ragweed [8, 22] | Ragweed plant response rating [8, 23] | Plant response rating, Soybean (soybean (Glycine max); [19]) | Soybean plant response rating (soybean (Glycine max); [20]) | Plant response rating, Velvetleaf [9, 18] | Plant response rating, Velvetleaf [9, 19]
25: Plant response rating, Soybean (soybean (Glycine max); [21])
